# From PubChem BioAssay AID2060488 (Molecular Pharmacology Branch, DTP, NCI, 2025)
# System: 966289-007-R4-J1-PDC complex spheroid viability
# Experiment: Anticancer human tumor 966289-007-R4-J1-PDC patient-derived pancreatic adenocarcinoma cell line growth inhibition [GQUAD]
# Conditions: for IC50: curve of first compound; for viability, T/C: stronger effect = lower value
# Outline: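 Viability of tumor cells grown as complex spheroids with endothelial and stromal cells, exposed to drug combinations. Top concentration at or near clinical Cmax (else 10 microM), diluted in half-log increments.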
# [1] = second compound 0.0316 µM, first compound 0.0316 µM
# [2] = second compound 0.0316 µM, first compound 0.1 µM
# [3] = second compound 0.0316 µM, first compound 0.316 µM
# [4] = second compound 0.0316 µM, first compound 1 µM
# [5] = second compound 0.0316 µM, first compound 3.16 µM
# [6] = second compound 0.0316 µM, first compound 10 µM
# [7] = second compound 0.1 µM, first compound 0.0316 µM
# [8] = second compound 0.1 µM, first compound 0.1 µM
# [9] = second compound 0.1 µM, first compound 0.316 µM
# [10] = second compound 0.1 µM, first compound 1 µM
# [11] = second compound 0.1 µM, first compound 3.16 µM
# [12] = second compound 0.1 µM, first compound 10 µM
# [13] = second compound 0.316 µM, first compound 0.0316 µM
# [14] = second compound 0.316 µM, first compound 0.1 µM
# [15] = second compound 0.316 µM, first compound 0.316 µM
# [16] = second compound 0.316 µM, first compound 1 µM
# [17] = second compound 0.316 µM, first compound 3.16 µM
# [18] = second compound 0.316 µM, first compound 10 µM
# [19] = second compound 1 µM, first compound 0.0316 µM
# [20] = second compound 1 µM, first compound 0.1 µM
# [21] = second compound 1 µM, first compound 0.316 µM
# [22] = second compound 1 µM, first compound 1 µM
# [23] = second compound 1 µM, first compound 3.16 µM
# [24] = second compound 1 µM, first compound 10 µM
# [25] = second compound 3.16 µM, first compound 0.0316 µM
# [26] = second compound 3.16 µM, first compound 0.1 µM
# [27] = second compound 3.16 µM, first compound 0.316 µM
# [28] = second compound 3.16 µM, first compound 1 µM
# [29] = second compound 3.16 µM, first compound 3.16 µM
# [30] = second compound 3.16 µM, first compound 10 µM
# [31] = second compound 10 µM, first compound 0.0316 µM
# [32] = second compound 10 µM, first compound 0.1 µM
# [33] = second compound 10 µM, first compound 0.316 µM
# [34] = second compound 10 µM, first compound 1 µM
# [35] = second compound 10 µM, first compound 3.16 µM
# [36] = second compound 10 µM, first compound 10 µM
# 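Note: spheroids exposed to the agents for seven days before readout.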
# 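Throughout, for viability, T/C: percent viability relative to DMSO vehicle control wells taken as 100%.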
smiles,measurement,setting,value
C=CCn1c(=O)c2cnc(Nc3ccc(N4CCN(C)CC4)cc3)nc2n1-c1cccc(C(C)(C)O)n1 + Cc1cnc(CNC(=O)c2c(=O)c3ccc(N4CCCN(C)CC4)nc3n3c2sc2ccccc23)cn1,IC50,second compound 0.0316 µM,236 nM
same,IC50,second compound 0.1 µM,< 31.6 nM
same,IC50,second compound 0.316 µM,< 31.6 nM
same,IC50,second compound 1 µM,< 31.6 nM
same,IC50,second compound 3.16 µM,< 31.6 nM
same,IC50,second compound 10 µM,< 31.6 nM
same,"viability, T/C",[1],105%
same,"viability, T/C",[2],90%
same,"viability, T/C",[3],36.5%
same,"viability, T/C",[4],4.74%
same,"viability, T/C",[5],1.95%
same,"viability, T/C",[6],1.13%
same,"viability, T/C",[7],29.4%
same,"viability, T/C",[8],15.7%
same,"viability, T/C",[9],8.35%
same,"viability, T/C",[10],3.91%
same,"viability, T/C",[11],2.06%
same,"viability, T/C",[12],1.35%
same,"viability, T/C",[13],6.91%
same,"viability, T/C",[14],6.09%
same,"viability, T/C",[15],5.08%
same,"viability, T/C",[16],4.04%
same,"viability, T/C",[17],2.11%
same,"viability, T/C",[18],1.81%
same,"viability, T/C",[19],4.63%
same,"viability, T/C",[20],4.25%
same,"viability, T/C",[21],3.87%
same,"viability, T/C",[22],2.82%
same,"viability, T/C",[23],1.24%
same,"viability, T/C",[24],1.48%
same,"viability, T/C",[25],2.9%
same,"viability, T/C",[26],2.75%
same,"viability, T/C",[27],2.77%
same,"viability, T/C",[28],1.24%
same,"viability, T/C",[29],0.09%
same,"viability, T/C",[30],0.38%
same,"viability, T/C",[31],0.06%
same,"viability, T/C",[32],0.11%
same,"viability, T/C",[33],0.12%
same,"viability, T/C",[34],0.28%
same,"viability, T/C",[35],0.46%
same,"viability, T/C",[36],0.13%
C=CCn1c(=O)c2cnc(Nc3ccc(N4CCN(C)CC4)cc3)nc2n1-c1cccc(C(C)(C)O)n1 + Cc1[nH]c2ccc(F)cc2c1-c1nc2c3cccnc3c3ncccc3c2[nH]1,IC50,second compound 0.0316 µM,1830 nM
same,IC50,second compound 0.1 µM,1830 nM
same,IC50,second compound 0.316 µM,1840 nM
same,IC50,second compound 1 µM,1850 nM
same,IC50,second compound 3.16 µM,1760 nM
same,IC50,second compound 10 µM,1760 nM
same,"viability, T/C",[1],101%
same,"viability, T/C",[2],96.7%
same,"viability, T/C",[3],112%
same,"viability, T/C",[4],99.7%
same,"viability, T/C",[5],4.85%
same,"viability, T/C",[6],1.9%
same,"viability, T/C",[7],99.5%
same,"viability, T/C",[8],98.9%
same,"viability, T/C",[9],110%
same,"viability, T/C",[10],99.9%
same,"viability, T/C",[11],4.92%
same,"viability, T/C",[12],2.17%
same,"viability, T/C",[13],97.5%
same,"viability, T/C",[14],103%
same,"viability, T/C",[15],111%
same,"viability, T/C",[16],98%
same,"viability, T/C",[17],7.35%
same,"viability, T/C",[18],1.74%
same,"viability, T/C",[19],95.7%
same,"viability, T/C",[20],98.3%
same,"viability, T/C",[21],111%
same,"viability, T/C",[22],100%
same,"viability, T/C",[23],6.22%
same,"viability, T/C",[24],2%
same,"viability, T/C",[25],102%
same,"viability, T/C",[26],109%
same,"viability, T/C",[27],109%
same,"viability, T/C",[28],92.9%
same,"viability, T/C",[29],5.37%
same,"viability, T/C",[30],2.62%
same,"viability, T/C",[31],106%
same,"viability, T/C",[32],107%
same,"viability, T/C",[33],109%
same,"viability, T/C",[34],93.5%
same,"viability, T/C",[35],4.68%
same,"viability, T/C",[36],2.33%
C#Cc1c(F)ccc2cc(O)cc(-c3ncc4c(N5CC6CCC(C5)N6)nc(OCC56CCCN5CC(F)C6)nc4c3F)c12 (stereo not drawn) + Cc1cnc(CNC(=O)c2c(=O)c3ccc(N4CCCN(C)CC4)nc3n3c2sc2ccccc23)cn1,IC50,second compound 0.0316 µM,> 10000 nM
same,IC50,second compound 0.1 µM,< 31.6 nM
same,IC50,second compound 0.316 µM,< 31.6 nM
same,IC50,second compound 1 µM,< 31.6 nM
same,IC50,second compound 3.16 µM,< 31.6 nM
same,IC50,second compound 10 µM,< 31.6 nM
same,"viability, T/C",[1],114%
same,"viability, T/C",[2],114%
same,"viability, T/C",[3],111%
same,"viability, T/C",[4],116%
same,"viability, T/C",[5],122%
same,"viability, T/C",[6],114%
same,"viability, T/C",[7],38.4%
same,"viability, T/C",[8],31.4%
same,"viability, T/C",[9],34.2%
same,"viability, T/C",[10],31.9%
same,"viability, T/C",[11],40.5%
same,"viability, T/C",[12],33.9%
same,"viability, T/C",[13],10.9%
same,"viability, T/C",[14],11.8%
same,"viability, T/C",[15],13.7%
same,"viability, T/C",[16],12.7%
same,"viability, T/C",[17],11%
same,"viability, T/C",[18],7.05%
same,"viability, T/C",[19],6%
same,"viability, T/C",[20],4.8%
same,"viability, T/C",[21],5.85%
same,"viability, T/C",[22],6.1%
same,"viability, T/C",[23],6.94%
same,"viability, T/C",[24],2.87%
same,"viability, T/C",[25],4.4%
same,"viability, T/C",[26],5.02%
same,"viability, T/C",[27],5.21%
same,"viability, T/C",[28],4.53%
same,"viability, T/C",[29],4.58%
same,"viability, T/C",[30],0.22%
same,"viability, T/C",[31],0.1%
same,"viability, T/C",[32],0.14%
same,"viability, T/C",[33],0.14%
same,"viability, T/C",[34],0.28%
same,"viability, T/C",[35],0.16%
same,"viability, T/C",[36],0.11%
CC1COCCN1c1cc(C2(O)CC3CCC(C2)O3)c2cnn(-c3ccn[nH]3)c2n1 (stereo not drawn) + Cc1[nH]c2ccc(F)cc2c1-c1nc2c3cccnc3c3ncccc3c2[nH]1,IC50,second compound 0.0316 µM,117 nM
same,IC50,second compound 0.1 µM,112 nM
same,IC50,second compound 0.316 µM,134 nM
same,IC50,second compound 1 µM,131 nM
same,IC50,second compound 3.16 µM,60.9 nM
same,IC50,second compound 10 µM,50.6 nM
same,"viability, T/C",[1],112%
same,"viability, T/C",[2],55.6%
same,"viability, T/C",[3],13.9%
same,"viability, T/C",[4],5.11%
same,"viability, T/C",[5],4.75%
same,"viability, T/C",[6],3.95%
same,"viability, T/C",[7],111%
same,"viability, T/C",[8],53.8%
same,"viability, T/C",[9],14%
same,"viability, T/C",[10],5.55%
same,"viability, T/C",[11],4.82%
same,"viability, T/C",[12],4.44%
same,"viability, T/C",[13],105%
same,"viability, T/C",[14],63.2%
same,"viability, T/C",[15],11.7%
same,"viability, T/C",[16],5.9%
same,"viability, T/C",[17],4.9%
same,"viability, T/C",[18],4.84%
same,"viability, T/C",[19],98.5%
same,"viability, T/C",[20],61.1%
same,"viability, T/C",[21],14.2%
same,"viability, T/C",[22],5.99%
same,"viability, T/C",[23],4.35%
same,"viability, T/C",[24],4.34%
same,"viability, T/C",[25],81.8%
same,"viability, T/C",[26],25.1%
same,"viability, T/C",[27],11.7%
same,"viability, T/C",[28],5.99%
same,"viability, T/C",[29],6%
same,"viability, T/C",[30],4.42%
same,"viability, T/C",[31],71.7%
same,"viability, T/C",[32],18.7%
same,"viability, T/C",[33],6.61%
same,"viability, T/C",[34],5.67%
same,"viability, T/C",[35],4.73%
same,"viability, T/C",[36],4.11%
